The source of these data is ChEMBL document CHEMBL1201862, “PubChem BioAssay data set” (2004).

Some test systems named below: UO-31; LOX IMVI; KM12; CAKI-1; NCI-H460; SK-MEL-28; SK-MEL-5; SN12C; SF-539; SK-MEL-2; SF-295; OVCAR-3; A549; U-251; UACC-257; COLO 205; OVCAR-4; Malme-3M; HOP-62; EKVX.
What all share (experiment): NCI tumour cell line growth inhibition, 48 h

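Values below derive from 48-hour exposures of cells grown in 96-well plates, with endpoints linearly interpolated between the two concentrations bracketing the appropriate inhibition level. The concentration for 50% growth inhibition is given as GI50.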 The source made the active and inactive calls. Rule as the data show it: active = GI50 up to about 1.1 µM and inactive = higher.

Regarding `O=S(=O)(CCBr)CCBr`, the GI50 in the test with UO-31 was 30.8 µM (inactive); in the test with LOX IMVI, 7.67 µM (inactive); in the test on KM12 it was 13.9 µM (inactive); in the test with CAKI-1, 5.3 µM (inactive); in the test on NCI-H460, 12 µM (inactive); with SK-MEL-28, 2.67 µM (inactive). The GI50 was 7.35 µM (inactive) in the test on SK-MEL-5; 9.02 µM (inactive) in the test on SN12C; 6.22 µM (inactive) in the test on SF-539; 11.3 µM (inactive) in the test on SK-MEL-2; 15.7 µM (inactive) with SF-295; 3.67 µM (inactive) in the test with OVCAR-3. Also, the GI50 with A549 is 13.9 µM (inactive); in the test with U-251 it was 15.7 µM (inactive); in the test with UACC-257, 3.82 µM (inactive); in the test with COLO 205, 3.21 µM (inactive); with OVCAR-4, 9.57 µM (inactive); in the test on Malme-3M it was 3.17 µM (inactive). Also, the GI50 in the test with HOP-62 was 0.506 µM (active).
Turning to `CCOC(=O)c1csc(NC(=O)C(C)N2CCOCC2)n1` (configuration not stated), the GI50 with UO-31, in the test on LOX IMVI, in the test on KM12, in the test on CAKI-1, in the test with NCI-H460 and in the test on SK-MEL-28 was > 100 µM (inactive) throughout. Further, the GI50 in the test with SK-MEL-5, in the test on SF-539, with SK-MEL-2, with SF-295, in the test with OVCAR-3 and in the test with A549 was > 100 µM (inactive) throughout. Besides, the GI50 with U-251, in the test on UACC-257, in the test with COLO 205, with OVCAR-4, with Malme-3M and with EKVX was > 100 µM (inactive) each time. Also, in the test with HOP-62, the GI50 is > 100 µM (inactive).
`N#CCCN(CCC#N)c1ccc(/C=C2\N=C(c3cc([N+](=O)[O-])ccc3Cl)N(S(=O)(=O)c3ccccc3)C2=O)cc1`: the GI50 in the test with UO-31, in the test with LOX IMVI, with KM12, with CAKI-1, in the test with SK-MEL-28 and in the test on SK-MEL-5 was > 100 µM (inactive) throughout. For the same compound, the GI50 in the test with SN12C, in the test with SF-539, in the test with SK-MEL-2, in the test with SF-295, in the test on OVCAR-3 and in the test with A549 was > 100 µM (inactive) in each case. The GI50 in the test on U-251, in the test with COLO 205, in the test on OVCAR-4, in the test on Malme-3M, in the test with EKVX and with HOP-62 was > 100 µM (inactive) throughout.
For the compound `Cc1cc(C)c2c(c1)CC1(Cc3c(C)ccc(C)c3C1=O)C2=O` (configuration not stated), the GI50 in the test with KM12, in the test with CAKI-1, in the test with NCI-H460, in the test with SK-MEL-28, with SK-MEL-5 and in the test with SN12C was > 100 µM (inactive) in each case. Also, the GI50 in the test on SF-539, in the test on SK-MEL-2, in the test on SF-295, in the test on OVCAR-3, with A549 and in the test with U-251 was > 100 µM (inactive) in each case. Moreover, the GI50 in the test on UACC-257, in the test with COLO 205, in the test with OVCAR-4, in the test on Malme-3M and with EKVX was > 100 µM (inactive) each time.
As for `CC(=O)C(=O)NC1/C=C(C)\C=C/C(O)C/C=C(C)\C=C/C(O)CC2OC(=O)C1(C)C(=O)C2C` (configuration not stated), the GI50 in the test on UO-31, with LOX IMVI, in the test on KM12, with CAKI-1, in the test on NCI-H460 and with SK-MEL-28 was > 100 µM (inactive) in each case. Besides, the GI50 with SK-MEL-5, in the test with SN12C, in the test on SF-539, in the test with SK-MEL-2, in the test on SF-295 and with OVCAR-3 was > 100 µM (inactive) throughout. The GI50 is > 100 µM (inactive) in the test with A549; > 100 µM (inactive) in the test with U-251; > 100 µM (inactive) in the test on UACC-257; > 62.2 µM (inactive) in the test with COLO 205; > 100 µM (inactive) with OVCAR-4; > 100 µM (inactive) in the test on Malme-3M. Moreover, the GI50 with EKVX and with HOP-62 was > 100 µM (inactive) in each case.
As for `CSc1nc(NC2OC(CO)C(O)C(O)C2O)c(N)c(=O)n1C` (configuration not stated), the GI50 with UO-31, in the test on LOX IMVI, with KM12, in the test on NCI-H460, with SK-MEL-28 and in the test on SK-MEL-5 was > 100 µM (inactive) in each case. In addition, the GI50 in the test on SN12C, with SF-539, in the test on SK-MEL-2, with SF-295, with OVCAR-3 and in the test on A549 was > 100 µM (inactive) throughout. For the same compound, the GI50 in the test with U-251, with UACC-257, with COLO 205, in the test on OVCAR-4, in the test on Malme-3M and in the test with EKVX was > 100 µM (inactive) each time. In addition, the GI50 with HOP-62 is > 100 µM (inactive).
Regarding `CO/N=C1/c2sccc2[C@H](NC(=O)C(Cc2ccccc2)NC(=O)OC(C)(C)C)[C@@H]1O` (some centres not stated), the GI50 is 51.4 µM (inactive) with UO-31; > 100 µM (inactive) with LOX IMVI; > 100 µM (inactive) in the test on CAKI-1; > 100 µM (inactive) in the test with NCI-H460; > 100 µM (inactive) with SK-MEL-28; > 100 µM (inactive) in the test with SK-MEL-5. In addition, the GI50 in the test on SN12C, with SF-539, in the test with SK-MEL-2, in the test with SF-295, with OVCAR-3 and in the test on A549 was > 100 µM (inactive) in each case. Also, the GI50 is > 100 µM (inactive) with U-251; > 100 µM (inactive) with UACC-257; > 100 µM (inactive) in the test on COLO 205; 45.6 µM (inactive) in the test with OVCAR-4; > 100 µM (inactive) in the test on Malme-3M; > 100 µM (inactive) in the test on EKVX. Also, the GI50 in the test with HOP-62 is > 100 µM (inactive).
Take `CCC1CN2CCc3cc(OC)c(OC)cc3C2CC1CC1c2cc(OC)c(OC)cc2CCN1C(=O)C(N)Cc1ccccc1.[O-][Cl+3]([O-])([O-])O` (configuration not stated): the GI50 with UO-31 is 2.13 µM (inactive); with LOX IMVI, 0.386 µM (active); in the test with KM12, 1.77 µM (inactive); in the test on CAKI-1 it was 1.95 µM (inactive); in the test on NCI-H460, 0.538 µM (active); in the test on SK-MEL-28, 3.32 µM (inactive). Also, the GI50 in the test on SK-MEL-5 was 2.12 µM (inactive); in the test with SN12C it was 2.35 µM (inactive); in the test on SF-539, 2.56 µM (inactive); in the test on SK-MEL-2 it was 2.23 µM (inactive); in the test with SF-295, 2.05 µM (inactive); in the test with OVCAR-3 it was 4.16 µM (inactive). Moreover, the GI50 is 1.6 µM (inactive) in the test with A549; 2.06 µM (inactive) with U-251; 2.35 µM (inactive) with UACC-257; 2.77 µM (inactive) in the test with Malme-3M; 1.26 µM (inactive) in the test with EKVX; 2.73 µM (inactive) in the test on HOP-62.
In the case of `C=C1CC(OC)(C(OC)C(=O)N(C)[C@H]2OCO[C@H]3C2O[C@H](C[C@@H](COC)OC)C(C)(C)C3OC)O[C@H](C)[C@@H]1C` (some centres not stated), the GI50 in the test with UO-31 is 15.7 µM (inactive); in the test with LOX IMVI, 5.68 µM (inactive); with KM12 it was 5.33 µM (inactive); in the test on CAKI-1, 5.69 µM (inactive); with NCI-H460, 9.46 µM (inactive); with SK-MEL-28, 8.18 µM (inactive). Further, the GI50 in the test on SK-MEL-5 was > 9.16 µM (inactive); in the test on SN12C it was 22.5 µM (inactive); in the test with SF-539, 14.2 µM (inactive); in the test on SF-295, 7 µM (inactive); with OVCAR-3, 10 µM (inactive); in the test with A549, 16 µM (inactive). Further, the GI50 in the test with U-251 was 10.6 µM (inactive); with UACC-257 it was 11.6 µM (inactive); with COLO 205, 8.97 µM (inactive); with OVCAR-4, 3.61 µM (inactive); in the test with EKVX, 17 µM (inactive); in the test with HOP-62 it was > 91.6 µM (inactive).
Consider `C[n+]1ccc(Nc2ccc(NC(=O)c3ccc(Nc4cc[n+](C)c5ccc([N+](=O)[O-])cc45)cc3[N+](=O)[O-])cc2)cc1`, for which the GI50 with UO-31 is 45.3 µM (inactive); in the test with LOX IMVI it was > 68.2 µM (inactive); with KM12 it was 65.9 µM (inactive); in the test with CAKI-1 it was > 75.3 µM (inactive); in the test with NCI-H460 it was 25.7 µM (inactive); in the test on SK-MEL-28 it was 25.9 µM (inactive). For the same compound, the GI50 in the test with SK-MEL-5 was 24.1 µM (inactive); with SN12C, 57.4 µM (inactive); in the test with SF-539, 22.8 µM (inactive); in the test with SK-MEL-2, 48.8 µM (inactive); in the test with SF-295, 30.4 µM (inactive); in the test on OVCAR-3, 18.9 µM (inactive). Besides, the GI50 is 22.5 µM (inactive) in the test with A549; 22.6 µM (inactive) in the test on U-251; 24.3 µM (inactive) with UACC-257; 14 µM (inactive) in the test on COLO 205; 51.2 µM (inactive) in the test with OVCAR-4; 19.7 µM (inactive) in the test on Malme-3M. The GI50 is 45.7 µM (inactive) with EKVX and 59.8 µM (inactive) in the test with HOP-62.
